We go through 14 compounds from the supplement of paper PMC12420376.

One assay concerns KURAMOCHI
The assay can be described thus: drug sensitivity score (DSS2) on cancer cell count; higher = more sensitive; extreme values may be limits of the assay. Conditions: 72 h. The procedure, abridged:
(§1)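 Ovarian cancer cells were grown alone or in 1:1 direct co-culture with lung or skin fibroblasts. They were plated onto 384-well plates pre-spotted acoustically with 528 approved and investigational compounds at 5 concentrations, then treated for 72 h. Cells were fixed, immunostained for CK8/18 with Hoechst, and imaged at 10× (4 fields) to count cancer cells. A drug sensitivity score (DSS2) was derived in Breeze from 4-parameter logistic fits, with screen quality checked by Z'.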

In a further assay the test system is OVCAR8. Described as above. The conditions noted are these: 72 h. The gist of the method: as §1
[1] abbreviates: co-cultured fibroblast: BJHTERT.
Where [2] appears, read: co-cultured fibroblast: none (monoculture).

As to `Nc1ncnc2c1c(COc1cccc(Cl)c1)nn2C1CCOCC1`, the drug sensitivity score with KURAMOCHI (setting [1]), with KURAMOCHI (co-cultured fibroblast: WI38), with KURAMOCHI (setting [2]), in the assay on OVCAR8 (setting [1]), in the assay with OVCAR8 (co-cultured fibroblast: WI38) and in the assay on OVCAR8 (setting [2]) was 0 DSS throughout.
Consider `C#Cc1cccc(Nc2ncnc3cc4c(cc23)OCCOCCOCCO4)c1` [Icotinib], for which the drug sensitivity score turned out to be 0 DSS in the assay on KURAMOCHI (setting [1]); 0.2 DSS in the assay on KURAMOCHI (co-cultured fibroblast: WI38); 9.7 DSS with KURAMOCHI (setting [2]); 0.1 DSS in the assay on OVCAR8 (setting [1]); 0 DSS in the assay on OVCAR8 (co-cultured fibroblast: WI38); 0 DSS in the assay on OVCAR8 (setting [2]).
As for `CC1(COc2ccc3c(c2)ncn3-c2ccc3cccc(N4CCC(N)CC4)c3n2)COC1` [Crenolanib], the drug sensitivity score amounted to 12.6 DSS in the assay on KURAMOCHI (setting [1]); 10.5 DSS in the assay on KURAMOCHI (co-cultured fibroblast: WI38); 18 DSS with KURAMOCHI (setting [2]); 4.7 DSS in the assay on OVCAR8 (setting [1]); 14.6 DSS in the assay with OVCAR8 (co-cultured fibroblast: WI38); 5.5 DSS with OVCAR8 (setting [2]).
As to `CCS(=O)(=O)Nc1ccc(Oc2ccc(F)cc2F)c(-c2cn(C)c(=O)c3[nH]ccc23)c1` [Mivebresib], the drug sensitivity score in the assay on KURAMOCHI (setting [1]) is 22.6 DSS; in the assay on KURAMOCHI (co-cultured fibroblast: WI38), 21.7 DSS; in the assay with KURAMOCHI (setting [2]) it was 17.5 DSS; in the assay on OVCAR8 (setting [1]), 35.4 DSS; in the assay on OVCAR8 (co-cultured fibroblast: WI38), 26.9 DSS; with OVCAR8 (setting [2]), 30.9 DSS.
For the compound `COc1cc2c(cc1OC(C)C)[C@H](c1ccc(Cl)cc1)N(c1ccc(N(C)C[C@H]3CC[C@H](N4CCN(C)C(=O)C4)CC3)cc1)C(=O)C2` [NVP-CGM097], the drug sensitivity score in the assay with KURAMOCHI (setting [1]) is 7.7 DSS; in the assay on KURAMOCHI (co-cultured fibroblast: WI38) it was 3.4 DSS; in the assay on KURAMOCHI (setting [2]), 5.4 DSS; in the assay with OVCAR8 (setting [1]), 10.1 DSS; in the assay on OVCAR8 (co-cultured fibroblast: WI38) it was 11.1 DSS; with OVCAR8 (setting [2]), 3.5 DSS.
Take `CCCC(CCC)C(=O)O` [Valproic acid]: the drug sensitivity score in the assay on KURAMOCHI (setting [1]), in the assay on KURAMOCHI (co-cultured fibroblast: WI38), in the assay with KURAMOCHI (setting [2]), in the assay on OVCAR8 (setting [1]), with OVCAR8 (co-cultured fibroblast: WI38) and with OVCAR8 (setting [2]) was 0 DSS throughout.
With `CNC(=O)CN1CCC(Oc2cc3c(Nc4cccc(Cl)c4F)ncnc3cc2OC)CC1` [Sapitinib], the drug sensitivity score was 2.3 DSS in the assay with KURAMOCHI (setting [1]); 0 DSS in the assay on KURAMOCHI (co-cultured fibroblast: WI38); 0 DSS with KURAMOCHI (setting [2]); 1.7 DSS with OVCAR8 (setting [1]); 1 DSS in the assay with OVCAR8 (co-cultured fibroblast: WI38); 1.7 DSS in the assay with OVCAR8 (setting [2]).
For `CCn1c(=O)c(-c2ccc(Cl)cc2Cl)cc2cnc(Nc3ccc(N4CCNCC4)c(F)c3)nc21` [FRAX486], the drug sensitivity score with KURAMOCHI (setting [1]) is 9.7 DSS; with KURAMOCHI (co-cultured fibroblast: WI38), 4.9 DSS; in the assay on KURAMOCHI (setting [2]), 9.2 DSS; with OVCAR8 (setting [1]), 5.8 DSS; in the assay on OVCAR8 (co-cultured fibroblast: WI38) it was 9.8 DSS; with OVCAR8 (setting [2]), 13.1 DSS.
As for `Cc1ccc(F)c(NC(=O)Nc2ccc(-c3cccc4[nH]nc(N)c34)cc2)c1` [Linifanib], the drug sensitivity score turned out to be 0 DSS in the assay on KURAMOCHI (setting [1]); 0 DSS with KURAMOCHI (co-cultured fibroblast: WI38); 0 DSS in the assay on KURAMOCHI (setting [2]); 0 DSS with OVCAR8 (setting [1]); 0 DSS with OVCAR8 (co-cultured fibroblast: WI38); 0.5 DSS with OVCAR8 (setting [2]).
In the case of `Nc1ccccc1NC(=O)c1ccc(CNC(=O)OCc2cccnc2)cc1` [Entinostat], the drug sensitivity score was determined as 6 DSS in the assay on KURAMOCHI (setting [1]); 14.3 DSS in the assay on KURAMOCHI (co-cultured fibroblast: WI38); 9.2 DSS with KURAMOCHI (setting [2]); 8.5 DSS with OVCAR8 (setting [1]); 11.7 DSS in the assay with OVCAR8 (co-cultured fibroblast: WI38); 11.1 DSS in the assay on OVCAR8 (setting [2]).
Take `N#Cc1ccc(COC[C@H]2O[C@@H](n3c(NCc4ccc(Cl)c(Cl)c4)nc4c(N)ncnc43)[C@H](O)[C@@H]2O)cc1`: the drug sensitivity score in the assay with KURAMOCHI (setting [1]) is 4.2 DSS; in the assay with KURAMOCHI (co-cultured fibroblast: WI38) it was 3.3 DSS; in the assay on KURAMOCHI (setting [2]) it was 3.1 DSS; in the assay with OVCAR8 (setting [1]), 1 DSS; with OVCAR8 (co-cultured fibroblast: WI38) it was 0 DSS; in the assay with OVCAR8 (setting [2]), 5.5 DSS.
Regarding `COc1ccc(-c2ccc3c(N4CCOC[C@@H]4C)nc(N4CCOC[C@@H]4C)nc3n2)cc1CO` [AZD8055], the drug sensitivity score was determined as 21.3 DSS in the assay with KURAMOCHI (setting [1]); 18.1 DSS with KURAMOCHI (co-cultured fibroblast: WI38); 19 DSS with KURAMOCHI (setting [2]); 17.9 DSS in the assay on OVCAR8 (setting [1]); 11.4 DSS in the assay on OVCAR8 (co-cultured fibroblast: WI38); 21 DSS with OVCAR8 (setting [2]).
With `CC(=O)O[C@]1(C(C)=O)CC[C@H]2[C@@H]3C=C(C)C4=CC(=O)CC[C@]4(C)[C@H]3CC[C@@]21C` [Megestrol acetate], the drug sensitivity score was found to be 0 DSS in the assay with KURAMOCHI (setting [1]); 6 DSS in the assay on KURAMOCHI (co-cultured fibroblast: WI38); 0 DSS in the assay with KURAMOCHI (setting [2]); 0 DSS in the assay with OVCAR8 (setting [1]); 0 DSS in the assay with OVCAR8 (co-cultured fibroblast: WI38); 0 DSS in the assay on OVCAR8 (setting [2]).
As for `O=C(NOC[C@H](O)CO)c1ccc(F)c(F)c1Nc1ccc(I)cc1F`, the drug sensitivity score with KURAMOCHI (setting [1]) was 8.8 DSS; with KURAMOCHI (co-cultured fibroblast: WI38), 0.8 DSS; in the assay on KURAMOCHI (setting [2]), 3.3 DSS; with OVCAR8 (setting [1]), 7.7 DSS; in the assay on OVCAR8 (co-cultured fibroblast: WI38), 0 DSS; in the assay with OVCAR8 (setting [2]), 10.6 DSS.
